Consider 19 compounds from US8524722B2, “Substituted tricyclic compounds and methods of use thereof” (Bayer Intellectual Property GmbH, priority 2007, dated 2013).

By IC50 is commonly meant the concentration that gives 50% inhibition. Read a high IC50 as weaker potency in that assay.

Sequence of Epidermal Growth Factor Receptor (EGFR) (P00533 25-1210): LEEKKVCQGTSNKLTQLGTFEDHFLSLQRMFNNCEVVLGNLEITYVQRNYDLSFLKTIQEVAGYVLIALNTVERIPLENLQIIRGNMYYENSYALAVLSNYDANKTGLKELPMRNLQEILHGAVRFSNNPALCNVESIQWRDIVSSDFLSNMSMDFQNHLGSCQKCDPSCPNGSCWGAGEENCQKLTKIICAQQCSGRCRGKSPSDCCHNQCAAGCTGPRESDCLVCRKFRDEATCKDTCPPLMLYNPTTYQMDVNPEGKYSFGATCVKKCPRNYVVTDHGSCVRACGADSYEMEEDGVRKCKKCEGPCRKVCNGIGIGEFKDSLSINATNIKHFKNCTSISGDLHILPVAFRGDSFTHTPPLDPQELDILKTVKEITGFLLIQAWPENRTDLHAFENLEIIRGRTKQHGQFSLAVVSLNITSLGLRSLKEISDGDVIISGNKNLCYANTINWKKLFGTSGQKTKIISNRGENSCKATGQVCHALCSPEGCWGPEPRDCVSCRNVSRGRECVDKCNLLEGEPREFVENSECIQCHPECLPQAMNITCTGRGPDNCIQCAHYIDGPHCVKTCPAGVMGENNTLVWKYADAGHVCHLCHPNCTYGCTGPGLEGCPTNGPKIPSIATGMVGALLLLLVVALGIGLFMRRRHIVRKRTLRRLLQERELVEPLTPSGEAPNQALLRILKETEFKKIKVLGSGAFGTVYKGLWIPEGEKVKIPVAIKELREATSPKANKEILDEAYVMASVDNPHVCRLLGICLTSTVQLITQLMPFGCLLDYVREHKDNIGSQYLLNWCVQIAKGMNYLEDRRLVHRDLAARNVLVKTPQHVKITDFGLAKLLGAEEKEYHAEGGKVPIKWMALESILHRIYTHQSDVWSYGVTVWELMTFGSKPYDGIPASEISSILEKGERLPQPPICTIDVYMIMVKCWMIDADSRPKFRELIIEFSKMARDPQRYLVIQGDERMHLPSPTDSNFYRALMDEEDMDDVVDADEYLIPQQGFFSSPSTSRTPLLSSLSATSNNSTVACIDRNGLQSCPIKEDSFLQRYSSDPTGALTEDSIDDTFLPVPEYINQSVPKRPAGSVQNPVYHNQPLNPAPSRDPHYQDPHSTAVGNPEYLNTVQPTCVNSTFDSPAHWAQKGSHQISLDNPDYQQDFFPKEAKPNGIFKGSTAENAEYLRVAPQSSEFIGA

The first assay addresses Epidermal Growth Factor Receptor (EGFR) (Homo sapiens (Human), UniProt P00533). Kind of assay: EGFR HTRF kinase assay. It counts as biochemical.
Details: not given
Here is the method: EGFR inhibitory activity of compounds of the present invention is quantified employing the EGFR HTRF assay as described in the following paragraphs:
Epidermal Growth Factor Receptor (EGFR), affinity-purified from human carcinoma A431 cells (Sigma-Aldrich, # E3641), is used as kinase. As substrate for the kinase reaction, the biotinylated peptide biotin-Ahx-[…] (C-terminus in amide form) is used (available from, e.g., Biosynthan GmbH, Berlin-Buch, Germany).
EGFR is incubated for 30 min at 22° C. in the presence of different concentrations of test compounds in 5 μl assay buffer [50 mM Hepes/NaOH pH 7.0, 1 mM MgCl2, 5 mM MnCl2, 1.0 mM dithiothreitol, 0.5 mM sodium orthovanadate, 10 μM adenosine triphosphate (ATP), 1 μM substrate, 0.005% (v/v) Tween-20, 1% (v/v) dimethylsulfoxide]. The concentration of EGFR is adjusted depending on the activity of the enzyme lot and is chosen appropriate to have the assay in the linear range; typical concentrations are in the range of 20 U/ml. The reaction is stopped by the addition of 5 μl of a solution of HTRF detection reagents [0.1 μM streptavidine-XLent and 1 nM PT66-Eu-Chelate, an Europium-chelate labelled anti-phosphotyrosine antibody (Perkin Elmer)] in an aqueous EDTA solution [80 mM EDTA, 0.2% (w/v) bovine serum albumin in 50 mM HEPES/NaOH pH 7.0].
The resulting mixture is incubated for 1 h at 22° C. to allow the binding of the biotinylated phosphorylated peptide to the streptavidine-XLent and the PT66-Eu-Chelate. Subsequently, the amount of phosphorylated substrate is evaluated by measurement of the resonance energy transfer from the PT66-Eu-Chelate to the streptavidine-XLent. Therefore, the fluorescence emissions at 620 nm and 665 nm after excitation at 350 nm are measured in an HTRF reader, e.g. a Rubystar (BMG Labtechnologies, Offenburg, Germany) or a Viewlux (Perkin-Elmer). The ratio of the emissions at 665 nm and at […] is taken as the measure for the amount of phosphorylated substrate.
With `CC(C)N(C)C/C=C/C(=O)N1CCc2c(sc3ncnc(Nc4cc(O)cc(Cl)c4)c23)C1` [Example 123, 3-Chloro-5-[(7-{(2E)-4-[methyl(1-methylethyl)amino]but-2-enoyl}-5,6,7,8-tetrahydropyrido[4′,3′:4,5]thieno[2,3-d]pyrimidin-4-yl)amino]phenol], the midpoint of inhibition, the IC50, lay at 1 nM.

Staying with this assay, now noted: EGFR affinity-purified from A431 cells, 10 μM ATP, 30 min at 22° C.
On to `O=C(/C=C/[C@@H]1CCCN1)N1CCc2c(sc3ncnc(Nc4ccc(F)c(Cl)c4)c23)C1` [Example 13, N-(3-Chloro-4-fluorophenyl)-7-{(2E)-3-[(2S)-pyrrolidin-2-yl]prop-2-enoyl}-5,6,7,8-tetrahydropyrido[4′,3′:4,5]thieno[2,3-d]pyrimidin-4-amine], for which it took 2 nM to reach half-maximal inhibition (IC50). The same measure, in the same setting: the figure for `CN(C)C/C=C/C(=O)N1Cc2sc3ncnc(Nc4ccc(OCc5ccccn5)c(Cl)c4)c3c2C1` [Example 87, N-[3-Chloro-4-(pyridin-2-ylmethoxy)phenyl]-6-[(2E)-4-(dimethylamino)but-2-enoyl]-6,7-dihydro-5H-pyrrolo[3′,4′:4,5]thieno[2,3-d]pyrimidin-4-amine] is 19 nM; for `N#Cc1cnc2sc3c(c2c1Nc1ccc(Cl)c(Cl)c1)CCN(C(=O)/C=C/CN1CCCOCC1)C3` [Example 148, 4-[(3,4-Dichlorophenyl)amino]-7-[(2E)-4-(1,4-oxazepan-4-yl)but-2-enoyl]-5,6,7,8-tetrahydrothieno[2,3-b:5,4-c′]dipyridine-3-carbonitrile] it is 4.3 nM. For the compound `CN1CCC[C@H]1/C=C/C(=O)N1CCc2c(sc3ncnc(Nc4ccc(F)c(Cl)c4)c23)C1` [Example 14, N-(3-Chloro-4-fluorophenyl)-7-{(2E)-3-[(2S)-1-methylpyrrolidin-2-yl]prop-2-enoyl}-5,6,7,8-tetrahydropyrido[4′,3′:4,5]thieno[2,3-d]pyrimidin-4-amine], half-maximal inhibition (IC50) required 1 nM. Still for that read-out and setting: the figure for `CC(C)N(C)C/C=C/C(=O)N1CCc2c(sc3ncc(C#N)c(Nc4ccc5c(cnn5Cc5cccc(F)c5)c4)c23)C1` [Example 151, 4-{[1-(3-Fluorobenzyl)-1H-indazol-5-yl]amino}-7-{(2E)-4-[methyl(1-methylethyl)amino]but-2-enoyl}-5,6,7,8-tetrahydrothieno[2,3-b:5,4-c′]dipyridine-3-carbonitrile] is 6.4 nM; for `C[C@@H](Nc1ncnc2sc3c(c12)CCN(C(=O)/C=C/CN(C)C)C3)c1ccccc1` [Example 23, 7-[(2E)-4-(Dimethylamino)but-2-enoyl]-N-[(1R)-1-phenylethyl]-5,6,7,8-tetrahydropyrido[4′,3′:4,5]thieno[2,3-d]pyrimidin-4-amine] it is 4.6 nM. On the same count and under the same terms, next, `CN(C)C/C=C/C(=O)N1Cc2sc3ncnc(Nc4ccc(OCc5cccc(F)c5)c(Cl)c4)c3c2C1` [Example 86, N-{3-Chloro-4-[(3-fluorobenzyl)oxy]phenyl}-6-[(2E)-4-(dimethylamino)but-2-enoyl]-6,7-dihydro-5H-pyrrolo[3′,4′:4,5]thieno[2,3-d]pyrimidin-4-amine]: 5 nM. Still for that read-out and setting: the figure for `CC(C)(CN1CCOCC1)NC/C=C/C(=O)N1CCc2c(sc3ncnc(Nc4ccc(F)c(Cl)c4)c23)C1` [Example 12, N-(3-Chloro-4-fluorophenyl)-7-{(2E)-4-[(1,1-dimethyl-2-morpholin-4-ylethyl)amino]but-2-enoyl}-5,6,7,8-tetrahydropyrido[4′,3′:4,5]thieno[2,3-d]pyrimidin-4-amine] is 1 nM; for `O=C(/C=C/CN1CCCOCC1)N1CCCc2c(sc3ncnc(Nc4ccc(Cl)c(Cl)c4)c23)C1` [Example 143, N-(3,4-Dichlorophenyl)-8-[(2E)-4-(1,4-oxazepan-4-yl)but-2-enoyl]-6,7,8,9-tetrahydro-5H-pyrimido[5′,4′:4,5]thieno[2,3-c]azepin-4-amine] it is 1 nM; for `CC(C)N(C)C/C=C/C(=O)N1CCc2sc3ncnc(Nc4ccc(Cl)c(Cl)c4)c3c2C1` [Example 139, N-(3,4-Dichlorophenyl)-6-{(2E)-4-[methyl(1-methylethyl)amino]but-2-enoyl}-5,6,7,8-tetrahydropyrido[3′,4′:4,5]thieno[2,3-d]pyrimidin-4-amine] it is 9.2 nM. On to `CC(C)N(C)C/C=C/C(=O)N1CCc2c(oc3ncnc(Nc4ccc(F)c(Cl)c4)c23)C1` [Example 90, N-(3-Chloro-4-fluorophenyl)-7-{(2E)-4-[methyl(1-methylethyl)amino]but-2-enoyl}-5,6,7,8-tetrahydropyrido[4′,3′:4,5]furo[2,3-d]pyrimidin-4-amine], for which the IC50 came out at 1 nM. For the compound `CN(C/C=C/C(=O)N1CCc2c(sc3ncnc(Nc4cc(O)c(Cl)c(Cl)c4)c23)C1)C(C)(C)C` [Example 134, 5-[(7-{(2E)-4-[tert-Butyl(methyl)amino]but-2-enoyl}-5,6,7,8-tetrahydropyrido[4′,3′:4,5]thieno[2,3-d]pyrimidin-4-yl)amino]-2,3-dichlorophenol], the IC50 turned out to be 1 nM. `CN(C)C/C=C/C(=O)N1CCc2c(sc3ncc(C#N)c(Nc4ccc(F)c(Cl)c4)c23)C1` [Example 95, 4-[(3-Chloro-4-fluorophenyl)amino]-7-[(2E)-4-(dimethylamino)but-2-enoyl]-5,6,7,8-tetrahydrothieno[2,3-b:5,4-c′]dipyridine-3-carbonitrile] came in with an IC50 of 10 nM. `CN(C)C(=O)N1CCN(C/C=C/C(=O)N2CCc3c(sc4ncnc(Nc5ccc(F)c(Cl)c5)c34)C2)CC1` [Example 70] registered an IC50 of 1 nM. On the same count and under the same terms, next, `O=C(/C=C/CN1CCCOCC1)N1CCc2c(sc3ncnc(Nc4ccc(F)c(Cl)c4)c23)C1` [Example 5, N-(3-Chloro-4-fluorophenyl)-7-[(2E)-4-(1,4-oxazepan-4-yl)but-2-enoyl]-5,6,7,8-tetrahydropyrido[4′,3′:4,5]thieno[2,3-d]pyrimidin-4-amine]: 1 nM; `COCCN(C/C=C/C(=O)N1CCc2c(sc3ncnc(Nc4ccc(F)c(Cl)c4)c23)C1)CCOC` [Example 31]: 1 nM.

For `O=C(/C=C/CN1C2CCC1CC2)N1CCc2c(sc3ncnc(Nc4ccc(F)c(Cl)c4)c23)C1` [Example 10, 7-[(2E)-4-(7-Azabicyclo[2.2.1]hept-7-yl)but-2-enoyl]-N-(3-chloro-4-fluorophenyl)-5,6,7,8-tetrahydropyrido[4′,3′:4,5]thieno[2,3-d]pyrimidin-4-amine], half-maximal inhibition (IC50) required 1.1 nM. On the same count and under the same terms, next, `CN(C)C/C=C/C(=O)N1Cc2sc3ncnc(Nc4ccc(F)c(Cl)c4)c3c2C1` [Example 81, N-(3-Chloro-4-fluorophenyl)-6-[(2E)-4-(dimethylamino)but-2-enoyl]-6,7-dihydro-5H-pyrrolo[3′,4′:4,5]thieno[2,3-d]pyrimidin-4-amine]: 12 nM.
